Results on 11 compounds are retold here after patent US5030647A, “Anti-inflammatory thienylbenzylamine compounds” (Boehringer Ingelheim Pharmaceuticals, Inc., priority 1990, dated 1991).

Broadly, the inhibition is the share of the control response that was lost under treatment.

In one test the test system is human PMN. The test is described as follows: Chemotaxis of human peripheral leukocytes (human PMN chemotaxis, FMLP as chemoattractant). It is filed as cell-based. The note with it: Leukocyte, FMLP 1×10^-8 M; for inhibition at 1 µM: read-out: PERCENT INHIBITION (human PMN chemotaxis) 1 μM; for inhibition at 0.01 µM: read-out: PERCENT INHIBITION (human PMN chemotaxis) 0.01 μm. The procedure: A) Equal parts of citrated peripheral venous blood drawn from a normal volunteer were mixed with saline containing 6% dextran. The mixture was allowed to sediment for 30-40 minutes in a 50 ml polypropylene centrifuge tube. B) The plasma was decanted and centrifuged at 1500 rpm for 7 minutes and washed with saline. C) The supernatant was decanted and the contaminating red blood cells were eliminated by adding ice cold lysing solution and allowing the cell suspension to stand on ice for 5 minutes. […] E) The tubes were centrifuged at 400g for 30 minutes at room temperature. F) The supernatant was decanted and the PMNs (pelleted on the bottom of the tubes) were washed with saline and with Hanks buffer. The cells were adjusted to a final concentration of 3×10^6 cells/ml in Hanks buffer containing 0.5% BSA. 1) Chemoattractant: serial dilution was prepared of the stocks (10^-3 M) N-Formyl-methionyl-leucylphenylalanine in Hanks buffer and 130 μl of 1×10^-8 M solution was pipetted into the lower bottom chamber. The bottom chamber of the negative control was filled with saline. 2) Placed Millipore membranes to completely cover the wells and allowed the liquid to absorb. 3) Placed on upper chamber and tighten retaining nuts. 1) Sample preparation: Mixed equal volume of sample diluted in Hanks buffer containing […] and cell suspension in a test tube prior to pipetting 200 μl into appropriate duplicate chambers. 2) Incubated chambers at 37° C. for 40-60 minutes. 10) Three to five fields per membrane were counted with the aid of the Image Analyser (optimal 40-10). Special effort was made to select a standard for evaluating the cell monolayer in which the distribution of cells in the field of view is uniform. The number of cells at each […] level beneath the selected monolayer was then counted and the chemotactic index (CI) calculated by multiplying the individual cell count at each level by their corresponding depth of penetration, and taking the sum of these numbers. 11) The results in Table II are recorded as percent inhibition. Percent inhibition by each thienylbenzylamime was calculated as follows: [formula] The CI of the control was determined by conducting the assay with N-formyl-methionyl-leucylphenylalanine (FMLP) alone without any thienlbenzylamine. The background was determined by conducting the assay without any FMLP.

A further test concerns paw swelling. The test is described as follows: Reverse passive Arthus reaction, inhibition of paw swelling after oral dosing. It is filed as in vivo. The note with it: Rattus norvegicus, po, 30 mg/kg oral, rats. As to the method: The reverse passive Arthus reaction is initiated by the interaction of antigen and antibody resulting in the formation of a precipitating immune complex, followed by fixation of complement, accumulation of leukocytes, edema and hemorrhage. The immunopathology of rheumatoid arthritis involves many of the parameters found in this reaction. Test groups (5 rats per group) are dosed orally with compounds one hour prior to the sub-plantar injection into the right hind paw of rabbit anti-ovalbumin antibody (50 μg/0.1 ml). Immediately afterwards, ovalbumin (Sigma, #5503) (5 mg/0.2 ml) is injected i.v. via the tail vein. The right hind paw volume is measured at hourly intervals, from one to four hours after the injection of the immune reactants. The change in paw volume for each animal is calculated by subtracting zero hour paw volume (before injection) from the paw volume at the time of measurement. The mean of these values is calculated for each group. Results are expressed in Table I below as percent inhibition of paw swelling compared to untreated controls.

The mark [1] stands for this setting: 2 h, 2 hours, read-out: % INHIBITION (of paw swelling) HOUR 2.
[2] abbreviates: 3 h, 3 hours, read-out: % INHIBITION (of paw swelling) HOUR 3.
The mark [3] stands for this setting: 4 h, 4 hours, read-out: % INHIBITION (of paw swelling) HOUR 4.

Read-outs that look alike come from different tables or passages of the source.

Turning to `CN(C)Cc1ccccc1C(O)c1cccs1` (stereo not shown) [Compound 3, 2-[(2-Dimethylaminomethylphenyl)hydroxymethyl]thiophene], the inhibition at 1 µM in the test with human PMN amounted to 39%. Moreover, in the test with human PMN, the inhibition at 0.01 µM is 14%. For the same compound, the figures for the inhibition in vivo at 30 mg/kg in the test with paw swelling (setting [1]), with paw swelling (setting [2]) and in the test on paw swelling (setting [3]) were 43.3%, 22.8% and 0%, respectively.
For the compound `Cc1ccc(C(O)c2ccccc2CN(C)C)s1` (stereo not shown) [Compound 4, 2-[(2-dimethylaminomethylphenyl)hydroxymethyl]-5-methyl-thiophene], the inhibition at 1 µM in the test with human PMN came to 55%. The inhibition at 0.01 µM in the test on human PMN was determined as 12%. The inhibition in vivo at 30 mg/kg in the test on paw swelling (setting [1]) came to 43.1%; in the test on paw swelling (setting [2]), 19.8%; with paw swelling (setting [3]), 4.2%.
The corresponding values for `CN(C)Cc1ccccc1C(O)c1sccc1Cl` (stereo not shown) [Compound 5, 3-chloro-2-[(2-dimethylaminomethylphenyl)hydroxymethyl]thiophene] are 34%, 34%, 35.6%, 13.6% and 32.3%.
On to `CCN(CC)Cc1ccccc1C(O)c1ccc(Cl)s1` (stereo not shown) [Compound 6, 5-chloro-2-[(2-diethylaminomethylphenyl)hydroxymethyl]thiophene], for which, in the test with human PMN, the inhibition at 1 µM is 25%. In addition, the inhibition at 0.01 µM with human PMN was found to be 24%. Further, the inhibition in vivo at 30 mg/kg is 46% with paw swelling (setting [1]), 35.9% with paw swelling (setting [2]) and 0% in the test on paw swelling (setting [3]).
`CCOC(c1ccc(Cl)s1)c1ccccc1CN(C)C` (stereo not shown) [Compound 7, 5-chloro-2-[(2-dimethylaminomethylphenyl)ethoxymethyl]thiophene]: the inhibition at 1 µM in the test on human PMN came to 41%. Moreover, in the test on human PMN, the inhibition at 0.01 µM was 37%. The inhibition in vivo at 30 mg/kg in the test on paw swelling (setting [1]) worked out at 24.2%; in the test on paw swelling (setting [2]), 0%; in the test with paw swelling (setting [3]), 0%.
On to `CN(CCO)Cc1ccccc1C(O)c1ccc(Cl)s1` (stereo not shown) [Compound 8], for which the inhibition at 1 µM in the test on human PMN came out at 42%. The inhibition at 0.01 µM in the test on human PMN came out at 35%. In addition, the results for the inhibition in vivo at 30 mg/kg in the test with paw swelling (setting [1]), in the test with paw swelling (setting [2]) and in the test with paw swelling (setting [3]) were 26.9%, 18.2% and 2.8%, respectively.
On to `COC(c1ccc(Cl)s1)c1ccccc1CN(CCO)CCO` (stereo not shown) [Compound 9, 5-chloro-2-[2-(N,N-diethanolaminomethyl-phenyl)methoxymethyl]thiophene], for which the inhibition at 1 µM with human PMN is 49%. Also, the inhibition at 0.01 µM in the test on human PMN was 23%. The inhibition in vivo at 30 mg/kg in the test on paw swelling (setting [1]) is 20.8%; with paw swelling (setting [2]), 3.6%; in the test on paw swelling (setting [3]), 0%.
The corresponding values for `CN(C)Cc1ccccc1C(=O)c1ccc(Cl)s1` [Compound 11, 5-chloro-2-(2-dimethylaminomethylbenzoyl)thiophene] are 33%, 37%, 40.5%, 18.8% and 1.5%.
Taken in the same sequence, the figures for `CN(C)Cc1ccccc1Cc1ccc(Cl)s1` [Compound 12, 5-chloro-2-(2-dimethylaminomethylphenylmethyl)thiophene] were 52%, 54%, 65.8%, 51.1% and 25.5%.
The corresponding values for `CN1Cc2ccccc2C1c1ccc(Cl)s1` (stereo not shown) [Compound 14] are 51%, 0%, 64.4%, 49.9% and 17.8%.
On to `CN(C)Cc1ccccc1C(O)c1ccsc1` (stereo not shown) [Compound 21], for which the inhibition at 1 µM in the test with human PMN turned out to be 54%. Besides, in the test on human PMN, the inhibition at 0.01 µM came to 35%. Moreover, the inhibition in vivo at 30 mg/kg in the test on paw swelling (setting [1]) turned out to be 39%; in the test with paw swelling (setting [2]) it was 18%; in the test with paw swelling (setting [3]), 30%.
